{"source": "ChEMBL document CHEMBL3774317", "about": "“Design and synthesis of novel tamoxifen analogues that avoid CYP2D6 metabolism” (Eur J Med Chem, 2016)", "key": {"[1]": {"assay": "Cytotoxicity against human RXF393 cells assessed as cell growth at 10^-7 M after 48 hrs by SRB assay", "format": "functional", "settings": "RXF 393, 48 h, read-out: Activity"}, "[2]": {"assay": "Cytotoxicity against human SW620 cells assessed as cell growth at 10^-6 M after 48 hrs by SRB assay", "format": "functional", "settings": "SW-620, 48 h, read-out: Activity"}, "[3]": {"assay": "Cytotoxicity against human OVCAR8 cells assessed as cell growth at 10^-4 M after 48 hrs by SRB assay", "format": "functional", "settings": "OVCAR-8, 48 h, read-out: Activity"}, "[4]": {"assay": "Cytotoxicity against human DU145 cells assessed as cell growth at 10^-4 M after 48 hrs by SRB assay", "format": "functional", "settings": "DU-145, 48 h, read-out: Activity"}, "[5]": {"test_system": "MDA-MB-468", "assay": "Cytotoxicity against human MDA-MB-468 cells assessed as cell growth at 10^-4 M after 48 hrs by SRB assay", "format": "functional", "settings": "MDA-MB-468, 48 h, read-out: Activity"}, "[6]": {"assay": "Cytotoxicity against human HL-60(TB) cells assessed as cell growth at 10^-5 M after 48 hrs by SRB assay", "format": "functional", "settings": "HL-60, 48 h, read-out: Activity"}, "[7]": {"assay": "Cytotoxicity against human HOP92 cells assessed as cell growth at 10^-5 M after 48 hrs by SRB assay", "format": "functional", "settings": "HOP-92, 48 h, read-out: Activity"}, "[8]": {"assay": "Cytotoxicity against human SNB19 cells assessed as cell growth at 10^-5 M after 48 hrs by SRB assay", "format": "functional", "settings": "SNB-19, 48 h, read-out: Activity"}, "[9]": {"test_system": "M14", "assay": "Cytotoxicity against human M14 cells assessed as cell growth at 10^-5 M after 48 hrs by SRB assay", "format": "functional", "settings": "M14, 48 h, read-out: Activity"}, "[10]": {"test_system": "NCI-H226", "assay": "Cytotoxicity against human NCI-H226 cells assessed as cell growth at 10^-8 M after 48 hrs by SRB assay", "format": "functional", "settings": "NCI-H226, 48 h, read-out: Activity"}, "[11]": {"test_system": "NCI-H460", "assay": "Cytotoxicity against human NCI-H460 cells assessed as cell growth at 10^-8 M after 48 hrs by SRB assay", "format": "functional", "settings": "NCI-H460, 48 h, read-out: Activity"}, "[12]": {"test_system": "SK-MEL-2", "assay": "Cytotoxicity against human SK-MEL-2 cells assessed as cell growth at 10^-8 M after 48 hrs by SRB assay", "format": "functional", "settings": "SK-MEL-2, 48 h, read-out: Activity"}, "[13]": {"assay": "Cytotoxicity against human Caki1 cells assessed as cell growth at 10^-8 M after 48 hrs by SRB assay", "format": "functional", "settings": "CAKI-1, 48 h, read-out: Activity"}, "[14]": {"assay": "Cytotoxicity against human PC3 cells assessed as cell growth at 10^-8 M after 48 hrs by SRB assay", "format": "functional", "settings": "PC-3, 48 h, read-out: Activity"}, "[15]": {"test_system": "NCI-H460", "assay": "Cytotoxicity against human NCI-H460 cells assessed as cell growth at 10^-7 M after 48 hrs by SRB assay", "format": "functional", "settings": "NCI-H460, 48 h, read-out: Activity"}, "[16]": {"test_system": "SK-MEL-28", "assay": "Cytotoxicity against human SK-MEL-28 cells assessed as cell growth at 10^-5 M after 48 hrs by SRB assay", "format": "functional", "settings": "SK-MEL-28, 48 h, read-out: Activity"}, "[17]": {"assay": "Cytotoxicity against human NCI-ADR-RES cells assessed as cell growth at 10^-5 M after 48 hrs by SRB assay", "format": "functional", "settings": "read-out: Activity"}, "[18]": {"assay": "Cytotoxicity against human SW620 cells assessed as cell growth at 10^-4 M after 48 hrs by SRB assay", "format": "functional", "settings": "SW-620, 48 h, read-out: Activity"}, "[19]": {"test_system": "MDA-MB-435", "assay": "Cytotoxicity against human MDA-MB-435 cells assessed as cell growth at 10^-4 M after 48 hrs by SRB assay", "format": "functional", "settings": "MDA-MB-435, 48 h, read-out: Activity"}, "[20]": {"assay": "Cytotoxicity against human RPMI8226 cells assessed as cell growth at 50 nM after 48 hrs by SRB assay", "format": "functional", "settings": "RPMI-8226, 48 h, read-out: Activity"}, "[21]": {"assay": "Cytotoxicity against human HCT15 cells assessed as cell growth at 50 nM after 48 hrs by SRB assay", "format": "functional", "settings": "HCT-15, 48 h, read-out: Activity"}, "[22]": {"test_system": "Malme-3M", "assay": "Cytotoxicity against human MALME-3M cells assessed as cell growth at 50 nM after 48 hrs by SRB assay", "format": "functional", "settings": "read-out: Activity"}, "[23]": {"assay": "Cytotoxicity against human OVCAR3 cells assessed as cell growth at 50 nM after 48 hrs by SRB assay", "format": "functional", "settings": "OVCAR-3, 48 h, read-out: Activity"}, "[24]": {"assay": "Cytotoxicity against human SKOV3 cells assessed as cell growth at 50 nM after 48 hrs by SRB assay", "format": "functional", "settings": "SK-OV-3, 48 h, read-out: Activity"}, "[25]": {"test_system": "CCRF-CEM", "assay": "Cytotoxicity against human CCRF-CEM cells assessed as cell growth at 0.5 uM after 48 hrs by SRB assay", "format": "functional", "settings": "read-out: Activity"}, "[26]": {"assay": "Cytotoxicity against human IGROV1 cells assessed as cell growth at 50 uM after 48 hrs by SRB assay", "format": "functional", "settings": "IGROV-1, 48 h, read-out: Activity"}, "[27]": {"assay": "Metabolic stability in human liver microsomes assessed as remaining parent compound level at 10 uM after 3 hrs in absence of NAPDH by LC/MS analysis", "format": "ADME", "settings": "read-out: Drug metabolism"}, "[28]": {"test_system": "EKVX", "assay": "Cytotoxicity against human EKVX cells assessed as cell growth at 0.5 uM after 48 hrs by SRB assay", "format": "functional", "settings": "read-out: Activity"}, "[29]": {"assay": "Cytotoxicity against human COLO205 cells assessed as cell growth at 0.5 uM after 48 hrs by SRB assay", "format": "functional", "settings": "COLO 205, 48 h, read-out: Activity"}, "[30]": {"test_system": "U-251", "assay": "Cytotoxicity against human U251 cells assessed as cell growth at 0.5 uM after 48 hrs by SRB assay", "format": "functional", "settings": "U-251, 48 h, read-out: Activity"}, "[31]": {"test_system": "NCI-H226", "assay": "Cytotoxicity against human NCI-H226 cells assessed as cell growth at 5 uM after 48 hrs by SRB assay", "format": "functional", "settings": "NCI-H226, 48 h, read-out: Activity"}, "[32]": {"assay": "Cytotoxicity against human SNB19 cells assessed as cell growth at 5 nM after 48 hrs by SRB assay", "format": "functional", "settings": "SNB-19, 48 h, read-out: Activity"}, "[33]": {"test_system": "M14", "assay": "Cytotoxicity against human M14 cells assessed as cell growth at 5 nM after 48 hrs by SRB assay", "format": "functional", "settings": "M14, 48 h, read-out: Activity"}, "[34]": {"test_system": "SK-MEL-2", "assay": "Cytotoxicity against human SK-MEL-2 cells assessed as cell growth at 5 nM after 48 hrs by SRB assay", "format": "functional", "settings": "SK-MEL-2, 48 h, read-out: Activity"}, "[35]": {"assay": "Cytotoxicity against human RXF393 cells assessed as cell growth at 5 nM after 48 hrs by SRB assay", "format": "functional", "settings": "RXF 393, 48 h, read-out: Activity"}, "[36]": {"assay": "Cytotoxicity against human DU145 cells assessed as cell growth at 5 nM after 48 hrs by SRB assay", "format": "functional", "settings": "DU-145, 48 h, read-out: Activity"}, "[37]": {"test_system": "MCF7", "assay": "Cytotoxicity against human MCF7 cells assessed as cell growth at 5 nM after 48 hrs by SRB assay", "format": "functional", "settings": "MCF7, 48 h, read-out: Activity"}, "[38]": {"assay": "Cytotoxicity against human UACC257 cells assessed as cell growth at 5 uM after 48 hrs by SRB assay", "format": "functional", "settings": "UACC-257, 48 h, read-out: Activity"}, "[39]": {"test_system": "SN12C", "assay": "Cytotoxicity against human SN12C cells assessed as cell growth at 5 uM after 48 hrs by SRB assay", "format": "functional", "settings": "read-out: Activity"}, "[40]": {"assay": "Cytotoxicity against human RPMI8226 cells assessed as cell growth at 50 uM after 48 hrs by SRB assay", "format": "functional", "settings": "RPMI-8226, 48 h, read-out: Activity"}, "[41]": {"test_system": "NCI-H460", "assay": "Cytotoxicity against human NCI-H460 cells assessed as cell growth at 50 uM after 48 hrs by SRB assay", "format": "functional", "settings": "NCI-H460, 48 h, read-out: Activity"}}, "data": [{"smiles": "C/C(=C(/c1ccc(O)cc1)c1ccc(OCCN2CCCC2)cc1)c1ccccc1", "values": [{"measurement": "growth at 0.1 µM", "setting": "[1]", "result": 105, "unit": "%"}, {"measurement": "growth at 1 µM", "setting": "[2]", "result": 101, "unit": "%"}, {"measurement": "growth at 100 µM", "setting": "[3]", "result": -61, "unit": "%"}, {"measurement": "growth at 100 µM", "setting": "[4]", "result": -100, "unit": "%"}, {"measurement": "growth at 100 µM", "setting": "[5]", "result": -87, "unit": "%"}, {"measurement": "growth at 10 µM", "setting": "[6]", "result": -39, "unit": "%"}, {"measurement": "growth at 10 µM", "setting": "[7]", "result": -13, "unit": "%"}, {"measurement": "growth at 10 µM", "setting": "[8]", "result": -10, "unit": "%"}, {"measurement": "growth at 10 µM", "setting": "[9]", "result": -58, "unit": "%"}, {"measurement": "growth at 0.01 µM", "setting": "[10]", "result": 91, "unit": "%"}, {"measurement": "growth at 0.01 µM", "setting": "[11]", "result": 106, "unit": "%"}, {"measurement": "growth at 0.01 µM", "setting": "[12]", "result": 97, "unit": "%"}, {"measurement": "growth at 0.01 µM", "setting": "[13]", "result": 87, "unit": "%"}, {"measurement": "growth at 0.01 µM", "setting": "[14]", "result": 104, "unit": "%"}, {"measurement": "growth at 0.1 µM", "setting": "[15]", "result": 106, "unit": "%"}, {"measurement": "growth at 10 µM", "setting": "[16]", "result": -74, "unit": "%"}, {"measurement": "growth at 10 µM", "setting": "[17]", "result": 25, "unit": "%"}, {"measurement": "growth at 100 µM", "setting": "[18]", "result": -92, "unit": "%"}, {"measurement": "growth at 100 µM", "setting": "[19]", "result": -100, "unit": "%"}]}, {"smiles": "CCCCCCCCCC(=O)Oc1ccc(/C(=C(/C)c2ccccc2)c2ccc(OCCN3CCCC3)cc2)cc1", "values": [{"measurement": "growth at 0.05 µM", "setting": "[20]", "result": 100, "unit": "%"}, {"measurement": "growth at 0.05 µM", "setting": "[21]", "result": 90, "unit": "%"}, {"measurement": "growth at 0.05 µM", "setting": "[22]", "result": 98, "unit": "%"}, {"measurement": "growth at 0.05 µM", "setting": "[23]", "result": 104, "unit": "%"}, {"measurement": "growth at 0.05 µM", "setting": "[24]", "result": 90, "unit": "%"}, {"measurement": "growth at 0.5 µM", "setting": "[25]", "result": 76, "unit": "%"}, {"measurement": "growth at 50 µM", "setting": "[26]", "result": -58, "unit": "%"}, {"measurement": "remaining at 3 h, 10 µM", "setting": "[27]", "result": 54, "unit": "%"}, {"measurement": "growth at 0.5 µM", "setting": "[28]", "result": 78, "unit": "%"}, {"measurement": "growth at 0.5 µM", "setting": "[29]", "result": 44, "unit": "%"}, {"measurement": "growth at 0.5 µM", "setting": "[30]", "result": 67, "unit": "%"}, {"measurement": "growth at 5 µM", "setting": "[31]", "result": 97, "unit": "%"}, {"measurement": "growth at 0.005 µM", "setting": "[32]", "result": 98, "unit": "%"}, {"measurement": "growth at 0.005 µM", "setting": "[33]", "result": 98, "unit": "%"}, {"measurement": "growth at 0.005 µM", "setting": "[34]", "result": 101, "unit": "%"}, {"measurement": "growth at 0.005 µM", "setting": "[35]", "result": 101, "unit": "%"}, {"measurement": "growth at 0.005 µM", "setting": "[36]", "result": 102, "unit": "%"}, {"measurement": "growth at 0.005 µM", "setting": "[37]", "result": 45, "unit": "%"}, {"measurement": "growth at 5 µM", "setting": "[38]", "result": 101, "unit": "%"}, {"measurement": "growth at 5 µM", "setting": "[39]", "result": 95, "unit": "%"}, {"measurement": "growth at 50 µM", "setting": "[40]", "result": -52, "unit": "%"}, {"measurement": "growth at 50 µM", "setting": "[41]", "result": -91, "unit": "%"}]}]}
